In ChEMBL document CHEMBL5357073, “Novel Heterocyclic PAD4 Inhibitors for Treating Multiple Diseases” (ACS Med Chem Lett, 2024):

The molecules below were run against Protein-arginine deiminase type-4 (Homo sapiens, UniProt Q9UM07) (assay: Inhibition of human recombinant PAD4 using TSTGGRQGSHH peptide as substrate preincubated for 30 mins followed by substrate addition and measured after 90 mins by RapidFire mass spectroscopy analysis).
Chain of Protein-arginine deiminase type-4 (Q9UM07 whole entry): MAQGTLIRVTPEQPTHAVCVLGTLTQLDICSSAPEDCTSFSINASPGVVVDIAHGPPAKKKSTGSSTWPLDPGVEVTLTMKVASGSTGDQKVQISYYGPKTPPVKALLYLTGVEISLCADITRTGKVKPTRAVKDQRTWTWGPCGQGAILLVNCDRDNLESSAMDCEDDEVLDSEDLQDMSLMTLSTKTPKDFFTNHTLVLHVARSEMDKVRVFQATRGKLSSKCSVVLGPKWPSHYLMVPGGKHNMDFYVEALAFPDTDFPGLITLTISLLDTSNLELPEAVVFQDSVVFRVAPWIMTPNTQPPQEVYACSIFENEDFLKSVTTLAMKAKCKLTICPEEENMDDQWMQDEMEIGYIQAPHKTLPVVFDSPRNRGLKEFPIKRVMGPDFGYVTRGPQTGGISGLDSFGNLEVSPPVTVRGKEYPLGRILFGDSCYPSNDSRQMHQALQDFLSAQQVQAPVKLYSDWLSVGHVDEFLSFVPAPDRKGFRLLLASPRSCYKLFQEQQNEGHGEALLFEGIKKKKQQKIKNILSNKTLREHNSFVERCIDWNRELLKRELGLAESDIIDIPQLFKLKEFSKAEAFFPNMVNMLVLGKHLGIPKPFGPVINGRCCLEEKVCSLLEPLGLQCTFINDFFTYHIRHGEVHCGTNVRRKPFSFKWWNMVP

IC50 [nM]	SMILES
≤ 10	COC(=O)N(C)CCOc1cccc2cc(-c3nc4cc5c(cc4n3C)CCN(CC(N)CF)C5=O)n(CC3CC3)c12 (stereo unspecified)
≤ 10	Cn1c(-c2cc3cccc(OCCn4cnnn4)c3n2CC2CC2)nc2cc3c(cc21)CCN(CC(N)CF)C3=O (stereo unspecified)
≤ 10	Cn1c(-c2cc3cccc(OCCn4ccnc4)c3n2CC2CC2)nc2cc3c(cc21)CCN(CC(N)CF)C3=O (stereo unspecified)
≤ 10	Cn1c(-c2cc3cccc(OCC4CNC(=O)O4)c3n2CC2CC2)nc2cc3c(cc21)CCN(CC(N)CF)C3=O (stereo unspecified)
≤ 10	Cn1c(-c2cc3cccc(OCCn4cncn4)c3n2CC2CC2)nc2cc3c(cc21)CCN(CC(N)CF)C3=O (stereo unspecified)
≤ 10	Cn1c(-c2cc3cccc(OCCc4cnoc4)c3n2CC2CC2)nc2cc3c(cc21)CCN(CC(N)CF)C3=O (stereo unspecified)
